In patent EP1228052B1, “1-CYCLIC AMINO-ALKYLCYCLOHEXANE COMPOUNDS, PHARMACEUTICAL COMPOSITIONS THEREOF, AND THEIR USE AS ANTICONVULSANTS” (Merz Pharma GmbH & Co. KGaA, priority 1999, dated 2001):

Columns and labels:
[1] = system: convulsions induced by maximal electroshock (MES); assay: Convulsions induced by maximal electroshock (MES); format: in vivo; details: ip; 95% confidence limits in the next column
Description: (§1) Effect of MRZ 2/705 on convulsions induced by maximal electroshock (MES). […] The therapeutic index (TI) was also calculated as the ED50 for inhibition of traction reflex (Tract.) impairment or rotarod failure (Rot.) divided by the ED50 for MES-induced seizure-induced convulsions.

[2] = system: traction reflex (Tract.) impairment; assay: Traction reflex impairment (for therapeutic index); format: in vivo; details: therapeutic index: ED50 for traction reflex impairment divided by ED50 for MES-induced convulsions
Description: as §1

rotarod failure (Rot.) = assay: Rotarod failure (for therapeutic index); format: in vivo; details: therapeutic index: ED50 for rotarod failure divided by ED50 for MES-induced convulsions
Description: as §1

[^3H]-(+)-MK-801 binding = [3H]-(+)-MK-801 binding; details: read-out: MK-801 Ki; means of 3-5 experiments; Cheng-Prusoff, Kd for MK-801 of […]
Description: (§2) Effect of MRZ 2/705 on [^3H]-(+)-MK-801 binding, NMDA-induced currents in patch clamp experiments, and glutamate toxicity in cultured cortical neurones. […] IC50s (±SEM) in patch clamp and glutamate toxicity experiments were determined from data from at least 3 concentrations producing between 15 and 85% inhibition and at least 5 cells/well per concentration.

NMDA-induced currents = NMDA-induced currents in patch clamp experiments; format: cell-based; details: at least 3 concentrations, at least 5 cells per concentration
Description: as §2

[3] = system: cultured cortical neurones; assay: Glutamate toxicity in cultured cortical neurones; format: cell-based; details: Cortical neurone, read-out: Glut Tox IC50
Description: as §2

amygdala kindled rats = assay: Amygdala kindling model in fully kindled rats; format: in vivo, Female Wistar rats
Description: The substance MRZ 2/705 was tested in the amygdala kindling model in rats. In this model chronically implanted animals with stimulation and recording electrodes in the amygdala were rendered more susceptible to seizures by repeated initially subconvulsive electrical stimulation (Goddard et al., 1969, Sato el. al, 1990). Once enhanced sensitivity, characterized by generalized motor seizures, has developed, the animal is said to be fully kindled. For substance screening procedures we determine the individual threshold current that induces afterdischarges at the stimulation site.
Female Wistar rats were purchased at a body weight of 200-220g (Harlan Windelmann Versuchstierzucht, Borchen, Germany) and were then kept under controlled environmental conditions (24-25°C, 50-60% humidity, 12h light / dark cycle) with free access to standard laboratory chow (Altromin 1324 standard diet) and tap water. All experiments were performed within the same day time in the morning to minimize possible effects of circadian variation. […] These animals were previously kindled and used to test other compounds. The period between the previous and current studies was long enough (at least one month) so that it was ample time for a complete washout from the previously tested drug.
For implantation of kindling electrodes, rats were anaesthetized with chloral hydrate (360 mg/kg, i/p.), the skull surface was exposed, and a bipolar electrode was implanted into the right hemisphere aimed at the basolateral amygdala using the following sterotaxic coordinates according to the atlas of Paximos and Watson (1986): 2.2 mm caudal, 4.8 mm lateral, 8.5 mm ventral (all respective to bregma). The electrodes consisted of two twisted Teflon-coated stainless steel wires (250 µm diameter) separated by 0.5 mm at the tip. A screw, which served as grounding electrode, was positioned over the left parietal cortex. Bipolar and ground electrodes were connected to plugs, and the electrode assembly and anchor screws were held in place with dental carylic cement applied to the exposed skull surface. After surgery, the rats were treated with antibiotics for 1 week to prevent infection.
Following a post-operative recovery period of two weeks, constant current stimulations (500µA, 1 msec, monophasic square-wave pulses, 50 Hz for 1 s) were delivered to the amygdala once daily (five times per week) until at least 10 sequential fully kindled stage-5 seizures were elicited. Seizure severity (SS) was scored according to Racine (1972): 1 immobility, eye closure, ear twitching, twitching of vibrissae, sniffing, facial clonus; 2 head nodding associated with more severe facial clonus; 3 clonus of one forelimb; 3.5 bilateral clonus without rearing; 4 bilateral clonus accompanied by rearing; 4.5 generalized clonic seizures without rearing and falling (e.g. because of direct loss of balance); 5 rearing and falling accompanied by generalized clonic seizures. In these fully kindled rats afterdischarge threshold (ADT) was determined by administering a series of stimulations at intervals of 1 min. increasing in steps of about 20% of the previously applied current. The afterdischarge threshold was defined as the lowest current intensity producing afterdischarge with a duration of at least 5 s.
In all experiments seizure duration and afterdischarge duration were recorded in addition to seizure severity and afterdischarge threshold. Seizure duration 1 (SD1) was the time period of limbic and/or motor seizures. Limbic seizure activity which sometimes occurred after termination of secondarily generalized seizures was not included in seizure duration. Seizure duration 2 (SD2) was the time period from stimulation until the end of postictal depression phase.
Afterdischarge duration 1 (ADD1) was defined as the period of high amplitude spiking (at least 1 Hz frequency and twice the prestimulation amplitude) in the electroencephalogram (EEG) of the BLA electrode, including the time of stimulation. […]

[4] = Adverse effects in kindled rats (sedation, ataxia, rotarod test); format: in vivo, Female Wistar rats
Description: The substance MRZ 2/705 was dissolved in distilled water and administered i.p. Thereby applicated volume was 3 ml/kg body weight. dosages used in the experiments were 5, 10, and 20 mg/kg.
Animals were allowed to adapt to the laboratory environment, then body temperature was measured and animals were put into open cages for constant observation. 15 and 30 minutes following drug or vehicle administration behavioral alterations and body temperature were determined. Adverse effects were scored during observation in open cages and in an open field. In addition, rats were subjected to the rotarod test (polypropylene, foam-coated rod, 5cm in diameter, 8rpm). Animals were considered to have failed this test, when they fell from the rod in each of three consecutive 1-min. attempts.

[5] = 20 mg/kg i.p., in a significant manner

CC1(C)CC(C)(C)CC(C)(N2CCCC2)C1.Cl [MRZ 2/705, N-(1,3,3,5,5-Pentamethylcyclohexyl) pyrrolidine hydrochloride]
ED50 [1]: 9.55 mg/kg
TI Tract [2]: 3.9
TI Rot. (rotarod failure (Rot.)): 5.4
Ki ([^3H]-(+)-MK-801 binding): 7.14 µM
IC50 (NMDA-induced currents): 25.4 µM
IC50 [3]: 12.3 µM
average increase in afterdischarge threshold above control threshold (amygdala kindled rats; 5 mg/kg i.p.): 36%
average increase in afterdischarge threshold above control threshold (amygdala kindled rats; 10 mg/kg i.p., significant): 50%
duration of afterdischarges (amygdala kindled rats; [5]): reduced
duration of motor seizures (amygdala kindled rats; [5]): reduced
seizure severity (amygdala kindled rats; [5]): reduced
average increase in afterdischarge threshold above control threshold (amygdala kindled rats; 20 mg/kg i.p., significant): 95%
seizure parameters (seizure severity, duration of motor seizures, duration of afterdischarges) (amygdala kindled rats; lower dosages (5 and 10 mg/kg i.p.)): remained unchanged or were only influenced slightly
rotarod test ([4]; 5, 10, 20 mg/kg i.p., 8 rpm, three consecutive 1-min attempts): no failure to pass the rotarod test was observed
ataxia ([4]; 10 and 20 mg/kg i.p.): Slight ataxia
sedation ([4]; all three dosages (5, 10, 20 mg/kg i.p.)): minor signs of sedation
Min I.ct-hality (Minimal lethality i.p.): >50 mg/kg
